Format in all cases: cell-based
In test [1] the test system is Microsporum canis. Kind of test: Antifungal activity in vitro, resazurin growth inhibition screen: Microsporum canis. The settings on record: Microsporum canis B68128. In a few lines:
(§1)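 Compound serial dilutions (2- or 4-fold), highest in-test concentration 64 μM, in U-bottom 96-well plates. Each well inoculated with 10^3 cfu fungus in RPMI-MOPS medium; growth read by resazurin against drug-free (100%) and medium-only (0%) controls.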
A general note: The colour change of resazurin is a common sign of viable cells or microbes.

The test system of test [2] is Trichophyton mentagrophytes. Nature of the test: Antifungal activity in vitro, resazurin growth inhibition screen: Trichophyton mentagrophytes. To be noted: Trichophyton mentagrophytes B70554. The method, boiled down: as §1
For test [3], the system named is Trichophyton rubrum. Nature of the test: Antifungal activity in vitro, resazurin growth inhibition screen: Trichophyton rubrum. The settings on record: Trichophyton rubrum B68183. The method, boiled down:
as §1

The test system of test [4] is Scedosporium apiospermum. Kind of test: Antifungal activity in vitro, resazurin growth inhibition screen: Scedosporium apiospermum. The settings on record: Scedosporium apiospermum IHEM3817. As for the experimental part: (§2) The standard susceptibility screen was performed in 96-well plates (U-bottom, Greiner Bio-One). Serial dilutions (2-fold or 4-fold) of 20 mM compound stock solutions were made in 100% DMSO, followed by an intermediate dilution step in water. These serial dilutions (10 μl) were then spotted onto test-plates that could be stored in the dark at 4° C. for a maximum period of 2 weeks. An adequate broad dose-range was included with 64 μM as the highest in-test concentration. […] The different fungal species/isolates (Table 3a) were cryopreserved and 1/1000 diluted in medium just prior to use. A standard inoculum of 200 μl containing 10^3 colony-forming unit (cfu) was then added to each well. A positive control (100% growth=fungal culture without antifungal) and a negative control (0% growth=RPMI-MOPS medium) were included on each plate.

Test [5] deals with Scedosporium prolificans. Nature of the test: Antifungal activity in vitro, resazurin growth inhibition screen: Scedosporium prolificans. The settings on record: Scedosporium prolificans IHEM21157. As for the experimental part: as §2
The test system of test [6] is Sporothrix schenkii. Nature of the test: Antifungal activity in vitro, resazurin growth inhibition screen: Sporothrix schenkii. To be noted: Sporothrix schenkii B62482. In a few lines:
as §1

Test [7] deals with Aspergillus fumigatus. Kind of test: Antifungal activity in vitro, resazurin growth inhibition screen: Aspergillus fumigatus. The settings on record: Aspergillus fumigatus B42928. In a few lines:
as §1

The test system of test [8] is Candida parapsilosis. Nature of the test: Antifungal activity in vitro, resazurin growth inhibition screen: Candida parapsilosis. The settings on record: Candida parapsilosis B66126. The method, boiled down:
as §1

In test [9] the test system is Cryptococcus neoformans. Nature of the test: Antifungal activity in vitro, resazurin growth inhibition screen: Cryptococcus neoformans. The settings on record: Cryptococcus neoformans B66663. The method, boiled down: as §1
Test [10] concerns Rhizopus oryzae. Kind of test: Antifungal activity in vitro, resazurin growth inhibition screen: Rhizopus oryzae. To be noted: Rhizopus oryzae IHEM5223. As for the experimental part:
as §2

The test system of test [11] is Rhizomucor miehei. Kind of test: Antifungal activity in vitro, resazurin growth inhibition screen: Rhizomucor miehei. To be noted: Rhizomucor miehei IHEM13391. On the procedure:
as §2

Consider `Fc1cccc2c1CN=C(c1ccc3c(c1)CCOC3)c1cccn1-2` [Compound 39, 4-(3,4-dihydro-1H-2-benzopyran-6-yl)-7-fluoro-6H-pyrrolo[1,2-a][1,4]benzo-diazepine], for which the “Inf. B pIC50” value in [1] came out at 6.36. Besides, the “Inf. G pIC50” value in test [2] was determined as 6.54. The “Inf. C pIC50” value in test [3] stood at 6.89. Besides, in test [4], the “Inf. H pIC50” value is given as 5.40. For the same compound, the “Inf. I pIC50” value in [5] is reported as 5.76. Also, in [6], the “Inf. A pIC50” value is given as 4.95. Also, the “Inf. E pIC50” value in [7] came out at 6.77. In test [8], the “Inf. D pIC50” value turned out to be 5.83. Moreover, in [9], the “Inf. F pIC50” value amounted to 5.21. In addition, the “Inf. J pIC50” value in test [10] was under 4.19. Besides, in test [11], the “Inf. K pIC50” value is on record as 4.38.
Take `Clc1cc(Cl)c2c(c1)CN=C(c1ccc3c(c1)CCO3)c1cccn1-2` [Compound 48, 8,10-dichloro-4-(2,3-dihydro-5-benzofuranyl)-6H-pyrrolo[1,2-a][1,4]benzo-diazepine]: in [1], the “Inf. B pIC50” value is 6.30. Further, the “Inf. G pIC50” value in test [2] came to 6.29. Further, the “Inf. C pIC50” value in test [3] is recorded as 6.78. Further, in test [4], the “Inf. H pIC50” value was determined as 4.94. In [5], the “Inf. I pIC50” value is 5.79. Also, the “Inf. A pIC50” value in test [6] is on record as 5.40. In [7], the “Inf. E pIC50” value came to 5.00. Also, the “Inf. D pIC50” value in test [8] is under 4.19. Further, in test [9], the “Inf. F pIC50” value was 5.70. Besides, in test [10], the “Inf. J pIC50” value was under 4.19. Further, the “Inf. K pIC50” value in test [11] is listed as under 4.19.
In the case of `Cl.O=C1CCc2cc(C3NCc4c(Cl)cccc4-n4cccc43)ccc21` (stereo not shown) [Compound 51, 5-(7-chloro-5,6-dihydro-4H-pyrrolo[1,2-a][1,4]benzodiazepin-4-yl)-2,3-dihydro-1H-inden-1-one .HCl], the “Inf. B pIC50” value in test [1] was 5.59. In addition, the “Inf. G pIC50” value in test [2] worked out at 5.32. In addition, the “Inf. C pIC50” value in [3] was 5.84. The “Inf. H pIC50” value in [4] came to 4.67. Moreover, in [5], the “Inf. I pIC50” value was determined as 5.32. Besides, the “Inf. A pIC50” value in test [6] came to 4.46. For the same compound, the “Inf. E pIC50” value in [7] was 5.24. In addition, the “Inf. D pIC50” value in test [8] was 4.91. For the same compound, the “Inf. F pIC50” value in [9] worked out at 4.74. Further, the “Inf. J pIC50” value in test [10] is given as under 4.19. The “Inf. K pIC50” value in test [11] was determined as 4.29.
In the case of `O=C1CCCc2cc(C3=NCc4c(F)cccc4-n4cccc43)ccc21` [Compound 59, 6-(7-fluoro-6H-pyrrolo[1,2-a][1,4]benzodiazepin-4-yl)-3,4-dihydro-1(2H)-naphthalenone], the IC50 in test [1] (read-out: Inf. B pIC50 (converted)) is 372 nM; in test [2] (read-out: Inf. G pIC50 (converted)) it was 339 nM; in test [3] (read-out: Inf. C pIC50 (converted)), 129 nM; in test [4] (read-out: Inf. H pIC50 (converted)) it was 741 nM; in test [5] (Lomentospora prolificans, read-out: Inf. I pIC50 (converted)) it was 1480 nM; in test [6] (read-out: Inf. A pIC50 (converted)) it was 4270 nM. Also, the IC50 is 398 nM in test [7] (read-out: Inf. E pIC50 (converted)); 2750 nM in test [8] (Lodderomyces parapsilosis, read-out: Inf. D pIC50 (converted)); 1120 nM in test [9] (read-out: Inf. F pIC50 (converted)); over 12900 nM in [10] (Rhizopus arrhizus, read-out: Inf. J pIC50 (converted)); 1480 nM in [11] (read-out: Inf. K pIC50 (converted)).
Take `FC1(F)Oc2ccc(C3=NCc4c(Cl)cccc4-n4cccc43)cc2O1` [Compound 74, 7-chloro-4-(2,2-difluoro-1,3-benzodioxol-5-yl)-6H-pyrrolo[1,2-a][1,4]benzo-diazepine]: the “Inf. B pIC50” value in test [1] is recorded as 6.87. Also, in test [2], the “Inf. G pIC50” value is recorded as 6.58. For the same compound, the “Inf. C pIC50” value in test [3] is reported as 7.39. In addition, the “Inf. H pIC50” value in test [4] turned out to be 5.5. In addition, the “Inf. I pIC50” value in [5] worked out at 7.05. Also, in [6], the “Inf. A pIC50” value is under 4.19. In addition, the “Inf. E pIC50” value in [7] amounted to 7.08. Further, the “Inf. D pIC50” value in test [8] is listed as under 4.19. Further, the “Inf. F pIC50” value in [9] is under 4.19. Moreover, the “Inf. J pIC50” value in test [10] is under 4.19. Besides, the “Inf. K pIC50” value in test [11] was under 4.19.
